According to the NIST ThermoML archive (doi:10.1021/je300827f):

Experiment: xn = mol fraction of the nth substance listed
Details: 101 kPa, Liquid; for viscosity: Capillary tube (Ostwald / Ubbelohde) method; for mass density: Vibrating tube method

CCCCC(C)O (stereo unspecified) [2-hexanol] + OCCOCCO
Details	mass density, 298.15 K [kg/m3]	mass density, 303.15 K [kg/m3]	mass density, 308.15 K [kg/m3]	mass density, 313.15 K [kg/m3]	viscosity, 298.15 K [mPa·s]	viscosity, 303.15 K [mPa·s]	viscosity, 308.15 K [mPa·s]	viscosity, 313.15 K [mPa·s]
x2 = 0	810.1	806.1	802.1	798	4.1	3.41	2.82	2.22
x2 = 0.0809	828.8	824.7	820.3	816.1	4.24	3.93	3.13	2.26
x2 = 0.1597	847.7	843.5	839.1	834.7	4.39	4.19	3.38	2.47
x2 = 0.2398	867.8	863.5	858.9	854.4	4.71	4.43	3.66	2.85
x2 = 0.3501	896.9	892.5	887.8	883.1	5.69	5.03	4.24	3.63
x2 = 0.4398	921.9	917.6	912.7	908.2	7.07	5.96	4.99	4.5
x2 = 0.5602	957.6	953.2	948.4	943.7	9.89	8	6.49	5.99
x2 = 0.6501	985.9	981.6	976.9	972.3	12.69	10.16	8.04	7.37
x2 = 0.7403	1015.9	1011.7	1007.2	1002.7	16.04	12.83	9.96	8.96
x2 = 0.8502	1054.8	1050.9	1046.6	1042.5	20.63	16.56	12.76	11.2
x2 = 0.9398	1088.6	1084.9	1081.1	1077.5	24.55	19.77	15.38	13.28

OCCOCCO [diethylene glycol] + CCCCC(C)O
x1 = 1
Details	mass density [kg/m3]	viscosity [mPa·s]
298.15 K	1112.4	27.15
303.15 K	1109.1	21.87
308.15 K	1105.6	17.26
313.15 K	1102.3	14.81
